Assay results: paper PMC11844072, “Novel 5,6-dichlorobenzimidazole derivatives as dual BRAFWT and BRAFV600E inhibitors: design, synthesis, anti-cancer activity and molecular dynamics simulations” (BMC Chemistry, 2025)

Columns and labels:
[1] = tested on: MCF7; assay: NCI 60 single concentration growth inhibition; assay type: cell-based, human; conditions: Homo sapiens, MCF7, Breast cancer, read-out: GI%
Summary of the method: (§1)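 One-concentration growth inhibition used 10 µM over 48 h in RPMI 1640/5% FBS, with sulforhodamine B protein staining as the end point. Percent growth is expressed relative to untreated control cells.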

[2] = tested on: OVCAR-5; assay: NCI 60 single concentration growth inhibition; assay type: cell-based, human; conditions: Homo sapiens, OVCAR-5, Ovarian cancer, read-out: GI%
Summary of the method: as §1

[3] = tested on: 786-0; assay: NCI 60 single concentration growth inhibition; assay type: cell-based, human; conditions: Homo sapiens, 786-0, Renal cancer, read-out: GI%
Summary of the method: as §1

[4] = tested on: BT-549; assay: NCI 60 single concentration growth inhibition; assay type: cell-based, human; conditions: Homo sapiens, BT-549, Breast cancer, read-out: GI%
Summary of the method: as §1

[5] = tested on: OVCAR-8; assay: NCI 60 single concentration growth inhibition; assay type: cell-based, human; conditions: Homo sapiens, OVCAR-8, Ovarian cancer, read-out: GI%
Summary of the method: as §1

[6] = tested on: SN12C; assay: NCI 60 single concentration growth inhibition; assay type: cell-based, human; conditions: Homo sapiens, Renal cancer, read-out: GI%
Summary of the method: as §1

[7] = tested on: SF-295; assay: NCI 60 single concentration growth inhibition; assay type: cell-based, human; conditions: Homo sapiens, SF-295, CNS cancer, read-out: GI%
Summary of the method: as §1

[8] = tested on: M14; assay: NCI 60 single concentration growth inhibition; assay type: cell-based, human; conditions: Homo sapiens, M14, Melanoma, read-out: GI%
Summary of the method: as §1

[9] = tested on: RPMI-8226; assay: NCI 60 single concentration growth inhibition; assay type: cell-based, human; conditions: Homo sapiens, RPMI-8226, Leukemia, read-out: GI%
Summary of the method: as §1

[10] = tested on: RXF 393; assay: NCI 60 single concentration growth inhibition; assay type: cell-based, human; conditions: Homo sapiens, RXF 393, Renal cancer, read-out: GI%
Summary of the method: as §1

[11] = tested on: MOLT-4; assay: NCI 60 single concentration growth inhibition; assay type: cell-based, human; conditions: Homo sapiens, MOLT-4, Leukemia, read-out: GI%
Summary of the method: as §1

[12] = tested on: MDA-MB-435; assay: NCI 60 single concentration growth inhibition; assay type: cell-based, human; conditions: Homo sapiens, MDA-MB-435, Melanoma, read-out: GI%
Summary of the method: as §1

[13] = tested on: UACC-257; assay: NCI 60 single concentration growth inhibition; assay type: cell-based, human; conditions: Homo sapiens, UACC-257, Melanoma, read-out: GI%
Summary of the method: as §1

[14] = tested on: PC-3; assay: NCI 60 single concentration growth inhibition; assay type: cell-based, human; conditions: Homo sapiens, PC-3, Prostate cancer, read-out: GI%
Summary of the method: as §1

[15] = tested on: T-47D; assay: NCI 60 single concentration growth inhibition; assay type: cell-based, human; conditions: Homo sapiens, T47D, Breast cancer, read-out: GI%
Summary of the method: as §1

[16] = tested on: NCI-H226; assay: NCI 60 single concentration growth inhibition; assay type: cell-based, human; conditions: Homo sapiens, NCI-H226, Non-small cell lung cancer, read-out: GI%
Summary of the method: as §1

[17] = tested on: A549/ATCC; assay: NCI 60 single concentration growth inhibition; assay type: cell-based, human; conditions: Homo sapiens, Non-small cell lung cancer, read-out: GI%
Summary of the method: as §1

[18] = tested on: EKVX; assay: NCI 60 single concentration growth inhibition; assay type: cell-based, human; conditions: Homo sapiens, Non-small cell lung cancer, read-out: GI%
Summary of the method: as §1

[19] = tested on: KM12; assay: NCI 60 single concentration growth inhibition; assay type: cell-based, human; conditions: Homo sapiens, KM12, Colon cancer, read-out: GI%
Summary of the method: as §1

[20] = tested on: ACHN; assay: NCI 60 single concentration growth inhibition; assay type: cell-based, human; conditions: Homo sapiens, Renal cancer, read-out: GI%
Summary of the method: as §1

[21] = tested on: SF-268; assay: NCI 60 single concentration growth inhibition; assay type: cell-based, human; conditions: Homo sapiens, SF-268, CNS cancer, read-out: GI%
Summary of the method: as §1

[22] = tested on: NCI 60 cancer cell line panel; assay: NCI 60 single concentration growth inhibition, panel mean; assay type: cell-based; conditions: Homo sapiens, mean over NCI 60 panel, read-out: Mean GI%
Summary of the method: as §1

SMILES: COC(=O)COc1ccc(C=NNC(=O)Cn2c(-c3ccc(OC)cc3)nc3cc(Cl)c(Cl)cc32)cc1OC [Compound 10p, Methyl-2-(4-((2-(2-(5,6-dichloro-2-(4-methoxyphenyl)-1H-benzo[d]imidazol-1-yl)acetyl)hydrazono)methyl)-2-methoxyphenoxy)acetate]
- inhibition at 10 µM [1]: 25.8%
- inhibition at 10 µM [2]: < 5%
- inhibition at 10 µM [3]: 162%
- inhibition at 10 µM [4]: 15.1%
- inhibition at 10 µM [5]: 143%
- inhibition at 10 µM [6]: 99.5%
- inhibition at 10 µM [7]: < 5%
- inhibition at 10 µM [8]: < 5%
- inhibition at 10 µM [9]: 15.7%
- inhibition at 10 µM [10]: 186%
- inhibition at 10 µM [11]: 13.7%
- inhibition at 10 µM [12]: 31.9%
- inhibition at 10 µM [13]: 22.7%
- inhibition at 10 µM [14]: 79.8%
- inhibition at 10 µM [15]: 81.1%
- inhibition at 10 µM [16]: < 5%
- inhibition at 10 µM [17]: < 5%
- inhibition at 10 µM [18]: 18.9%
- inhibition at 10 µM [19]: < 5%
- inhibition at 10 µM [20]: 95.2%
- inhibition at 10 µM [21]: < 5%
- inhibition at 10 µM [22]: 37.6%
